Laboratory results from patent US10449177B2, “Methods of treating mild cognitive impairment (MCI) and related disorders” (Buck Institute for Research on Aging, priority 2010, dated 2019).

What was measured:
[1] = target: T1, MBP-eAPP230-624 (Homo sapiens, UniProt P05067); assay: Small-angle X-ray scattering of MBP-eAPP230-624 incubated with compound; assay type: binding; details: for Dmax (Å) ± 10 / MWcalc/MWseq ± 0.2 / Rg (Å) ± 2 / binding to MBP-eAPP230-624 / APP and effect on conformation or dimerization: 50 μM compound; for Dmax (Å) ± 10 / MWcalc/MWseq ± 0.2 / Rg (Å) ± 2: MBP-eAPP230-624, 4° C., 1 hour; for binding to MBP-eAPP230-624 / APP and effect on conformation or dimerization: small-angle X-ray scattering
T1 construct: 100 μg of purified MBP-eAPP230-624 were incubated with 50 μM Disulfuram
T1 sequence (P05067 230-624 isoform P05067-4): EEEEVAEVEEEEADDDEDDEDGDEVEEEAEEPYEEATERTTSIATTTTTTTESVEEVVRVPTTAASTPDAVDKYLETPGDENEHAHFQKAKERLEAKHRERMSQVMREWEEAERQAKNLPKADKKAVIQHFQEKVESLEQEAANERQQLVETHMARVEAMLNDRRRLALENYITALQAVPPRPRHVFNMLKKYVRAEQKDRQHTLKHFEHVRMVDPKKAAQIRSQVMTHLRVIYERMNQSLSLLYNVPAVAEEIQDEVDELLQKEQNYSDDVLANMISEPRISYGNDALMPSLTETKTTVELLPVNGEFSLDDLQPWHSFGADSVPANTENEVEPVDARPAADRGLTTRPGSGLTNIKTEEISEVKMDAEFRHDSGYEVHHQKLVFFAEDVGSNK
Experimental: X-ray scattering data collection: To 100 μg of purified MBP-eAPP230-624 were incubated with 50 μM Disulfuram or 50 μM Sulfiram in 20 mM sodium phosphate pH 7.4, 137 mM sodium chloride, 0.05% dimethyl sulfoxide at 4° C. for 1 hour. The control sample was incubated in the buffer alone. The samples were then concentrated to approximately 1.5 mg/ml using […] NML concentrators. Small-angle X-ray scattering data were collected using protein concentrations in the range of 0.25-1.5 mg/ml and an X-ray wavelength of 1.11 Å at beam line 12.3.1 (Advanced Light Source). Samples of the filtrate were used for buffer subtraction. Data were integrated with software customized for the beam line and processed with the program PRIMUS (Konarev (2003) Journal of Applied Crystallography 36, 1277-1282). The program GNOM (Svergun, (1992) J. Appl. Crystallogr. 25, 495-503) was used to calculate the maximum dimension and the radius of gyration and to estimate the intensity of the scattering at zero angle for higher concentration samples. The molecule weight of each protein was calculated by comparing to the scattering of proteins of known molecule weight.

[2] = Brain uptake testing (PK): plasma and brain levels by LC/MS/MS; parameters: species or system mice; details: mouse, in vivo, sc
Experimental: Brain uptake testing (PK): In general, CNS exposure studies consisted of collection of heparinized plasma and brains after treatment with tropisetron, nimetazepam, disulfuram and honokiol following subcutaneous (sc) administration of the molecules at 10 mg/kg. Plasma and brain levels of the compounds were determined by quantitative LC/MS/MS methodology, conducted at Integrated Analytical Solutions (on the internet at ianalytical.net). Plasma samples were precipitated with acetonitrile:methanol (1:1) cocktail containing an internal standard. The brain samples were homogenized directly in ethylacetate or extracted from 5M guanidine homogenates using the liquid-liquid method. The resulting supernatant were evaporated to dryness and subjected to the LC/MS/MS analysis. For each compound 3 mice were used for analysis. The brain-to-plasma ratios and brain levels were then be calculated to identify the best candidate(s) for further testing.

[3] = test system: APP; assay: sAPPα, Aβ40 and Aβ42 levels in brain (PD) of APP transgenic (PDAPP) mice; assay type: in vivo; details: Tg mice; for sAPPα levels in hippocampus (Hip) and entorhinal cortex (ECx) / Aβ40 levels / Aβ42 levels: 10 mpk sc, 5 days
Experimental: […] Analysis: […]® kits from Perkin Elmer (PE) were used to quantify sAPPα (cat#: AL254C), sAPPβ (cat#: AL232C), Aβ40 (cat #: AL275C), Aβ42 (cat#: AL276C) and Tau (cat#: AL271C) from brain homogenates. The samples are added to an AlphaPlate-384 (cat#: 6005350). Twenty microliters (μl) of acceptor bead antibody mix was added to each five μl cerebrospinal fluid (CSF) sample and allowed to incubate for one hour at room temperature. Next, 25 μl of donor beads were added and allowed to incubate in the dark for 30 minutes at room temperature. Fluorescence was then measured on an EnsPire 96-well plate reader (Perkin-Elmer).
ELISA assays: ELISA kits from Invitrogen were also used to quantify Aβ1-40 (KHB3481) and Aβ1-42 (KHB3544) in duplicate from the CSF samples stored at −80° C. For assay, samples were thawed on ice and BSL-2 precautions practiced at all times. For the human Aβ 1-42 ultrasensitive ELISA, samples were diluted 1:2 (50 μl CSF plus 50 μl kit-provided standard diluent buffer). For the human Aβ1-40 ELISA, samples were diluted 1:15 (6.7 μl CSF plus […] of standard diluent buffer). Assays were performed according to manufacturer's instructions. In short, standards and samples were added to a plate pre-coated with a monoclonal capture antibody specific for the amino terminus of Hu Aβ. The samples were co-incubated with a rabbit detection antibody (Ab) specific for the carboxy terminus of the Aβ species being assayed for 3 hr at room temperature (Aβ 1-40) to overnight at 4° (Aβ 1-42) with gentle rocking After washing, bound rabbit Ab was detected using a horseradish peroxidase-labeled anti-rabbit secondary Ab. After washing again, bound HRP-anti rabbit Ab was detected colorimetrically (Spectramax 190, Molecular Devices) by the addition of a substrate solution. 1 mM 4-(2-Aminoethyl)benzenesulfonyl fluoride hydrochloride (AEBSF) protease inhibitor (101500, Calbiochem) was added to standards and samples.
In case of tropisetron the testing was done at 0.3 mpk, while in case of the other compounds (e.g., nimetazepam, disulfuram and honokiol) it was done at 10 mpk. From the collected brains the hippocampi were dissected. Levels of sAPPα, and Aβ1-40, Aβ1-42 and APPneo were measured by […] assay ([…] Perkin-Elmer), and Aβ1-40, Aβ1-42 (Invitrogen, sensitive ELISA kit) in brain homogenates of Tg mice. All procedures involved have been described (Galavan 2006, Proc Natl Acad Sci USA, 103, 7130-7135). […] The brain-to-plasma ratio (PK) of tropisetron and sAPPalpha/Aβ42 ratios (PD) were then determined.

[4] = test system: 7 W cells stably transfected with APP; assay: […] sAPPα assay in 7 W APP transfected cells; assay type: cell-based; details: 7 W CHO cells, 1 μM compound, 24 h
Experimental: In vitro compound testing assay: 7 W CHO cells were seeded at 50,000 cells/well in a 96 wells plate for 24 h. Then their medium was changed for fresh medium supplemented with 1 μM compounds (e.g., tropisetron, disulfuram, honokiol, and/or nimetazepam). After 24 h, 20 μl of the medium was added to 2 μl of the complete protease inhibitor with 1 μM EDTA and kept at 4° C. until analysis. 2 μl of that medium was treated with the Perkin Elmer (PE) […]® Aβ kit to determine the amount of Aβ42 secreted by the cells in 24 h using the PE-Enspire reader. Another aliquot of 2 μl of the medium was diluted with 50 μl of the PE […]® buffer and was treated with the PE […]® sAPPα kit to determine the amount of sAPPα secreted by the cells in 24 h. For the assay, 2 μl of the final mixture was treated with the acceptor bead and the donor antibody followed by addition of the donor beads and the […]® signal was measured using a PE-Enspire reader. For measurement of APPneo, the 50,000 cells were treated after seeding with fresh medium supplemented with or without the compound, but without fetal bovine serum (FBS), in order to induce the formation of the APPneo fragment. […]

[5] = Degradation in brain tissue; assay type: in vitro ADME
[6] = stated as known for the benzodiazepine; cited from earlier work

Compound	Dmax (Å) ± 10 [1]	MWcalc/MWseq ± 0.2 [1]	Rg (Å) ± 2 [1]	binding affinity relative to sulfuram ([1]; inferred from greater effect in X-ray scattering)	binding to MBP-eAPP230-624 / APP and effect on conformation or dimerization ([1]; listed as Disulfuram)	binding to MBP-eAPP230-624 / APP and effect on conformation or dimerization ([1]; listed as disulfuram)	blood-brain-barrier / brain penetration [2]	Aβ levels ([3]; 10 mpk)	sAPPα levels in hippocampus (Hip) and entorhinal cortex (ECx) [3]	sAPPα levels secreted by cells [4]	stability in brain tissue [5]	Aβ40 levels [3]	Aβ42 levels [3]	sAPPα levels in hippocampus (Hip) and entorhinal cortex (ECx) ([3]; 10 mg/kg)	sAPPα levels in hippocampus (Hip) and entorhinal cortex (ECx) ([3]; listed as nimetazepam, 10 mg/kg)	blood-brain-barrier penetration (known) [6]	binding to MBP-eAPP230-624 / APP and effect on conformation or dimerization [1]
CCN(CC)C(=S)SSC(=S)N(CC)CC [Disulfiram, 1,1′,1″,1′″-[disulfanediylbis(carbonothioylnitrilo)]tetraethane]	160 Å	1.5	51 Å	higher binding affinity	can bind to APP and disrupt APP dimerization	bind to MBP-eAPP230-624 and alter the conformation of the protein	low blood-brain-barrier penetration	no changes	no changes	increase	degrades rapidly in brain tissue						
CN1C(=O)CN=C(c2ccccc2)c2cc([N+](=O)[O-])ccc21 [Nimetazepam, 2-methyl-9-nitro-6-phenyl-2,5-diazabicyclo[5.4.0] undeca-5,8,10,12-tetraen-3-one]												No significant changes	No significant changes	significant increase	increase	cross the blood-brain-barrier well	
CCN(CC)C(=S)SC(=S)N(CC)CC [Sulfiram]	170 Å	1.7	53 Å														bind to MBP-eAPP230-624 and alter the conformation of the protein
C=CCc1ccc(O)c(-c2ccc(O)c(CC=C)c2)c1 [honokiol, 2-(4-hydroxy-3-prop-2-enyl-phenyl)-4-prop-2-enyl-phenol]							penetrates the brain well		no significant increase			No significant changes	No significant changes				
